Source: patent publication US11395857B2, “Radiolabeled melanocortin 1 receptor-specific alpha-melanocyte-stimulating hormone analogues for imaging or therapy” (PROVINCIAL HEALTH SERVICES AUTHORITY, priority 2018, dated 2022)

Assay: Biodistribution of 177Lu-labeled αMSH analogues in mice bearing SK-MEL-1 human melanoma
Details: male, mouse, total radioactivity; for tissue to tissue ratio at 1 h: 1 h p.i.; for tissue to tissue ratio at 1 h / tissue to tissue ratio at 4 h / tissue to tissue ratio at 24 h / tissue to tissue ratio at 120 h: NRG mice, SK-MEL-1 melanoma; for tissue to tissue ratio at 4 h: 4 h p.i.; for tissue to tissue ratio at 24 h: 24 h p.i.; for tissue to tissue ratio at 120 h: 120 h p.i.
[1] = NRG (NOD.Cg-Rag1tm1Mom I12rgtm1Wjl/SzJ), fat, iv
[2] = NRG (NOD.Cg-Rag1tm1Mom I12rgtm1Wjl/SzJ), seminal glands, iv
[3] = NRG (NOD.Cg-Rag1tm1Mom Il2rgtm1Wjl/SzJ), SK-MEL-1 tumour
[4] = NRG (NOD.Cg-Rag1tm1Mom Il2rgtm1Wjl/SzJ), adrenal glands
[5] = NRG (NOD.Cg-Rag1tm1Mom Il2rgtm1Wjl/SzJ), blood
[6] = NRG (NOD.Cg-Rag1tm1Mom Il2rgtm1Wjl/SzJ), bone
[7] = NRG (NOD.Cg-Rag1tm1Mom Il2rgtm1Wjl/SzJ), brain
[8] = NRG (NOD.Cg-Rag1tm1Mom Il2rgtm1Wjl/SzJ), heart
[9] = NRG (NOD.Cg-Rag1tm1Mom Il2rgtm1Wjl/SzJ), intestine
[10] = NRG (NOD.Cg-Rag1tm1Mom Il2rgtm1Wjl/SzJ), kidneys
[11] = NRG (NOD.Cg-Rag1tm1Mom Il2rgtm1Wjl/SzJ), liver
[12] = NRG (NOD.Cg-Rag1tm1Mom Il2rgtm1Wjl/SzJ), lungs
[13] = NRG (NOD.Cg-Rag1tm1Mom Il2rgtm1Wjl/SzJ), muscle
[14] = NRG (NOD.Cg-Rag1tm1Mom Il2rgtm1Wjl/SzJ), pancreas
[15] = NRG (NOD.Cg-Rag1tm1Mom Il2rgtm1Wjl/SzJ), spleen
[16] = NRG (NOD.Cg-Rag1tm1Mom Il2rgtm1Wjl/SzJ), stomach
[17] = NRG (NOD.Cg-Rag1tm1Mom Il2rgtm1Wjl/SzJ), testes
[18] = NRG (NOD.Cg-Rag1tm1Mom Il2rgtm1Wjl/SzJ), thyroid
[19] = NRG (NOD.Cg-Rag1tm1Mom Il2rgtm1Wjl/SzJ), tumour/blood
[20] = NRG (NOD.Cg-Rag1tm1Mom Il2rgtm1Wjl/SzJ), tumour/kidney
[21] = NRG (NOD.Cg-Rag1tm1Mom Il2rgtm1Wjl/SzJ), tumour/muscle
[22] = NRG (NOD.Cg-Rag1tm1Mom Il2rgtm1Wjl/SzJ), urine

Protocol: The SK-MEL-1 human melanoma cell line (HTB-67) was obtained commercially from ATCC. SK-MEL-1 cells were cultured in Eagle's Minimum Essential Medium (StemCell Technologies) under the same conditions as described in Example 1. Immunodeficient NOD.Cg-Rag1tm1Mom I12rgtm1Wjl/SzJ (NRG) male mice were obtained from an in-house breeding colony at the BC Cancer Research Centre. For tumor implantation, male NRG mice were anesthetized by inhalation with 2% isoflurane, and 5 million SK-MEL-1 cells were inoculated subcutaneously on the right dorsal flank. Mice were used for imaging or biodistribution studies when the tumors reached 6-8 mm in diameter in 16-20 days.
Biodistribution studies were performed as described in Example 3.

tissue uptake at 1 h [1]: 1.18 ± 0.08 %ID/g
tissue uptake at 4 h [1]: 0.45 ± 0.26 %ID/g
tissue uptake at 24 h [1]: 0.1 ± 0.05 %ID/g
tissue uptake at 120 h [1]: 0.08 ± 0.02 %ID/g
tissue uptake at 1 h [2]: 0.59 ± 0.08 %ID/g
tissue uptake at 4 h [2]: 1.53 ± 2.82 %ID/g
tissue uptake at 24 h [2]: 0.06 ± 0.01 %ID/g
tissue uptake at 120 h [2]: 0.03 ± 0.01 %ID/g
tissue uptake at 1 h [3]: 10.5 ± 3.29 %ID/g
tissue uptake at 4 h [3]: 14 ± 2.36 %ID/g
tissue uptake at 24 h [3]: 10.1 ± 2.13 %ID/g
tissue uptake at 120 h [3]: 4.8 ± 0.26 %ID/g
tissue uptake at 1 h [4]: 2.99 ± 2.15 %ID/g
tissue uptake at 4 h [4]: 1.21 ± 0.59 %ID/g
tissue uptake at 24 h [4]: 0.27 ± 0.13 %ID/g
tissue uptake at 120 h [4]: 0.3 ± 0.16 %ID/g
tissue uptake at 1 h [5]: 9.63 ± 0.78 %ID/g
tissue uptake at 4 h [5]: 2.46 ± 0.64 %ID/g
tissue uptake at 24 h [5]: 0.07 ± 0.03 %ID/g
tissue uptake at 120 h [5]: 0.02 %ID/g
tissue uptake at 1 h [6]: 1.1 ± 0.5 %ID/g
tissue uptake at 4 h [6]: 0.35 ± 0.08 %ID/g
tissue uptake at 24 h [6]: 0.15 ± 0.02 %ID/g
tissue uptake at 120 h [6]: 0.26 ± 0.39 %ID/g
tissue uptake at 1 h [7]: 0.17 ± 0.02 %ID/g
tissue uptake at 4 h [7]: 0.06 ± 0.01 %ID/g
tissue uptake at 24 h [7]: 0.01 %ID/g
tissue uptake at 120 h [7]: 0.01 %ID/g
tissue uptake at 1 h [8]: 2.5 ± 0.3 %ID/g
tissue uptake at 4 h [8]: 0.84 ± 0.23 %ID/g
tissue uptake at 24 h [8]: 0.14 ± 0.04 %ID/g
tissue uptake at 120 h [8]: 0.08 ± 0.02 %ID/g
tissue uptake at 1 h [9]: 1.42 ± 0.22 %ID/g
tissue uptake at 4 h [9]: 0.79 ± 0.5 %ID/g
tissue uptake at 24 h [9]: 0.19 ± 0.03 %ID/g
tissue uptake at 120 h [9]: 0.08 ± 0.01 %ID/g
tissue uptake at 1 h [10]: 13.4 ± 2.53 %ID/g
tissue uptake at 4 h [10]: 12.8 ± 2.29 %ID/g
tissue uptake at 24 h [10]: 6.48 ± 1.25 %ID/g
tissue uptake at 120 h [10]: 1.69 ± 0.13 %ID/g
tissue uptake at 1 h [11]: 6.91 ± 1.09 %ID/g
tissue uptake at 4 h [11]: 5.77 ± 1.62 %ID/g
tissue uptake at 24 h [11]: 4.36 ± 1.11 %ID/g
tissue uptake at 120 h [11]: 2.42 ± 0.33 %ID/g
tissue uptake at 1 h [12]: 6.59 ± 1.06 %ID/g
tissue uptake at 4 h [12]: 2.5 ± 0.67 %ID/g
tissue uptake at 24 h [12]: 0.86 ± 0.87 %ID/g
tissue uptake at 120 h [12]: 0.15 ± 0.12 %ID/g
tissue uptake at 1 h [13]: 0.98 ± 0.12 %ID/g
tissue uptake at 4 h [13]: 0.36 ± 0.11 %ID/g
tissue uptake at 24 h [13]: 0.05 ± 0.01 %ID/g
tissue uptake at 120 h [13]: 0.02 ± 0.01 %ID/g
tissue uptake at 1 h [14]: 1.4 ± 0.24 %ID/g
tissue uptake at 4 h [14]: 0.49 ± 0.08 %ID/g
tissue uptake at 24 h [14]: 0.1 ± 0.02 %ID/g
tissue uptake at 120 h [14]: 0.05 %ID/g
tissue uptake at 1 h [15]: 3.06 ± 0.53 %ID/g
tissue uptake at 4 h [15]: 1.45 ± 0.33 %ID/g
tissue uptake at 24 h [15]: 1.2 ± 0.56 %ID/g
tissue uptake at 120 h [15]: 0.98 ± 0.29 %ID/g
tissue uptake at 1 h [16]: 0.56 ± 0.1 %ID/g
tissue uptake at 4 h [16]: 0.44 ± 0.25 %ID/g
tissue uptake at 24 h [16]: 0.36 ± 0.2 %ID/g
tissue uptake at 120 h [16]: 0.13 ± 0.05 %ID/g
tissue uptake at 1 h [17]: 1.58 ± 0.32 %ID/g
tissue uptake at 4 h [17]: 0.84 ± 0.2 %ID/g
tissue uptake at 24 h [17]: 0.22 ± 0.04 %ID/g
tissue uptake at 120 h [17]: 0.16 ± 0.04 %ID/g
tissue uptake at 1 h [18]: 4.03 ± 0.45 %ID/g
tissue uptake at 4 h [18]: 3.11 ± 0.46 %ID/g
tissue uptake at 24 h [18]: 2.49 ± 0.64 %ID/g
tissue uptake at 120 h [18]: 1.83 ± 0.21 %ID/g
tissue to tissue ratio at 1 h [19]: 1.08 ± 0.3
tissue to tissue ratio at 4 h [19]: 5.84 ± 0.96
tissue to tissue ratio at 24 h [19]: 165 ± 50.1
tissue to tissue ratio at 120 h [19]: 246 ± 28.6
tissue to tissue ratio at 1 h [20]: 0.77 ± 0.12
tissue to tissue ratio at 4 h [20]: 1.1 ± 0.08
tissue to tissue ratio at 24 h [20]: 1.55 ± 0.1
tissue to tissue ratio at 120 h [20]: 2.85 ± 0.22
tissue to tissue ratio at 1 h [21]: 10.6 ± 2.98
tissue to tissue ratio at 4 h [21]: 41.5 ± 9.8
tissue to tissue ratio at 24 h [21]: 201 ± 10.4
tissue to tissue ratio at 120 h [21]: 269 ± 79.1
excreta dose per gram or mL at 1 h [22]: 376 ± 154 %ID/g
excreta dose per gram or mL at 4 h [22]: 154 ± 39.2 %ID/g
excreta dose per gram or mL at 24 h [22]: 5.39 ± 1.23 %ID/g
excreta dose per gram or mL at 120 h [22]: 1.12 ± 0.38 %ID/g
Compound: CCCC[C@H](NC(=O)CN1CCC(NC(=O)[C@H](CCCCNC(=O)CN2CCN(CC(=O)O)CCN(CC(=O)O)CCN(CC(=O)O)CC2)NC(=O)[C@H](CCC(=O)O)NC(=O)CCCc2ccc(I)cc2)CC1)C(=O)N[C@H]1CC(=O)NCCCC[C@@H](C(N)=O)N(C)C(=O)[C@H](Cc2c[nH]c3ccccc23)NC(=O)[C@H](CCCNC(=N)N)N(C)C(=O)[C@@H](Cc2ccccc2)NC(=O)[C@H](Cc2c[nH]cn2)NC1=O [^177Lu-labeled CCZ01118, metal not drawn]
